Consider nine compounds from article PMC4898059 (ACS infectious diseases, 2016).

One experiment addresses saMenB (Staphylococcus aureus, UniProt Q5HH38). Put plainly: Isothermal titration calorimetry with saMenB. It counts as binding, S. aureus.
The subject of the next experiment is MSSA (ATCC 25923). Put plainly: MIC, broth, methicillin-sensitive S. aureus. As to conditions: for MIC: Staphylococcus aureus, ATCC25923|MSSA, read-out: MIC MSSA; for MIC MSSA: modal value of experimental triplicates.
The subject of experiment [1] is Klebsiella pneumoniae (ATCC 13883). Put plainly: MIC, K. pneumoniae. As to conditions: for MIC: Klebsiella pneumoniae.
The subject of experiment [2] is MRSA. Put plainly: Agar MIC and colony morphology on tryptic soy agar. Format: cell-based, Staphylococcus aureus.
For experiment [3], the system named is MRSA cells. The experiment can be described thus: DHNA level in treated MRSA cells by LC/UV/MS. As to conditions: MRSA cells treated with 8 µg/mL for 18 hr.
For experiment [4], the system named is MRSA. Put plainly: Neutropenic thigh MRSA infection mouse model. As to conditions: for Reduction of bacterial load in thigh: neutropenic mice, 100 mg/kg SC at 1 and 12 hr post infection. Format: in vivo, Swiss Webster mice.
A further experiment has as its system E. coli (ATCC 25922). Put plainly: MIC, E. coli. To be noted: for MIC: Escherichia coli.
The subject of experiment [5] is Bacillus subtilis (ATCC 6051). The experiment can be described thus: MIC, B. subtilis.
For experiment [6], the system named is Enterococcus faecium (ATCC 19434). The experiment can be described thus: MIC, E. faecium.
Experiment [7] deals with MRSA. The experiment can be described thus: Systemic MRSA infection mouse model. It counts as in vivo, Swiss Webster mice. As to conditions: mice, IP infection, 100 mg/kg SC at 1, 12 and 24 hr post infection.
Experiment [8] deals with Proteus mirabilis (ATCC 35659). The experiment can be described thus: MIC, P. mirabilis. As to conditions: for MIC: Proteus mirabilis.
Experiment [9] deals with Haemophilus influenzae (ATCC 49427). Put plainly: MIC, H. influenzae. To be noted: for MIC: Haemophilus influenzae.
Another experiment concerns MRSA (BAA 1762). Put plainly: MIC, broth, methicillin-resistant S. aureus. As to conditions: for MIC: Staphylococcus aureus, BAA1762|MRSA; for MIC MRSA: modal value of experimental triplicates.
The subject of experiment [10] is Pseudomonas aeruginosa (ATCC 27853). Put plainly: MIC, P. aeruginosa. As to conditions: for MIC: Pseudomonas aeruginosa.
In a further experiment the test system is M. tuberculosis. To be noted: ref Li, X., et al. ACS Med Chem Lett, 2011; cited from earlier work.
Experiment [11] has as its system MRSA cells. Put plainly: Menaquinone-8. It counts as cell-based, Staphylococcus aureus. To be noted: 1/10, 1/5, 1/3 and ½ MIC.

Each structure is given as a SMILES string. In brackets after ≈: the same amount, converted by molar mass. Like-named read-outs stand apart in the source and are kept apart here.

Sequence of saMenB (Q5HH38 whole entry): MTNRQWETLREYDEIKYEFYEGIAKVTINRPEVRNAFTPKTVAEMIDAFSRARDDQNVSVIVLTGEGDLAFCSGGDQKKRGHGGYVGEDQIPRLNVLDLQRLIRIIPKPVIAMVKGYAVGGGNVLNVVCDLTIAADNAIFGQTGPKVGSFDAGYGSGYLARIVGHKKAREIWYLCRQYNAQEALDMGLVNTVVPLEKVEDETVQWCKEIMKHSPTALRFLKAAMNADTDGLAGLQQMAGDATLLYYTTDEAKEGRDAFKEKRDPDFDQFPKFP

The compound `CC(C)(COP(=O)(O)OP(=O)(O)OC[C@H]1O[C@@H](n2cnc3c(N)ncnc32)[C@H](O)[C@@H]1OP(=O)(O)O)[C@@H](O)C(=O)NCCC(=O)NCCS` [CoA, coenzyme A] yielded a Kd at saMenB of 25 ± 4 µM.

`COC(=O)C=CC(=O)c1ccc(Cl)cc1` [Compound 1, methyl 4-(4-chlorophenyl)-4-oxobut-2-enoate]: the MIC in the experiment with MSSA (ATCC 25923) is 0.35 µg/mL (≈ 1.56 µM); in experiment [1] (ATCC13883, read-out: MIC + MK-4), above 60 µg/mL; in experiment [1] (ATCC13883, read-out: MIC aerobic), above 60 µg/mL; in experiment [1] (ATCC13883, read-out: MIC anaerobic), 62.5 µg/mL (≈ 278 µM); in [1] (ATCC13883, read-out: MIC capnophilic) it was above 60 µg/mL; in the experiment with E. coli (ATCC 25922) (ATCC25922, read-out: MIC + MK-4), above 60 µg/mL. The MIC is above 60 µg/mL in the experiment on E. coli (ATCC 25922) (ATCC25922, read-out: MIC aerobic); 15.5 µg/mL (≈ 69 µM) in the experiment on E. coli (ATCC 25922) (ATCC25922, read-out: MIC anaerobic); 15.5 µg/mL (≈ 69 µM) in the experiment on E. coli (ATCC 25922) (ATCC25922, read-out: MIC capnophilic); above 60 µg/mL in experiment [5] (ATCC6051, read-out: MIC + MK-4); 8 µg/mL (≈ 35.6 µM) in experiment [5] (ATCC6051, read-out: MIC aerobic); 2 µg/mL (≈ 8.9 µM) in experiment [5] (ATCC6051, read-out: MIC anaerobic). Besides, the MIC in [5] (ATCC6051, read-out: MIC capnophilic) was 4 µg/mL (≈ 17.8 µM); in [6] (ATCC19434, read-out: MIC + MK-4) it was 31.5 µg/mL; in [6] (ATCC19434, read-out: MIC aerobic), 4 µg/mL (≈ 17.8 µM); in experiment [6] (ATCC19434, read-out: MIC anaerobic), 1.25 µg/mL (≈ 5.56 µM); in [6] (ATCC19434, read-out: MIC capnophilic) it was 2.5 µg/mL (≈ 11.1 µM); in experiment [8] (ATCC35659, read-out: MIC + MK-4), 31.5 µg/mL. Besides, the MIC in experiment [8] (ATCC35659, read-out: MIC aerobic) is above 60 µg/mL; in experiment [8] (ATCC35659, read-out: MIC anaerobic) it was 12.5 µg/mL (≈ 55.6 µM); in experiment [8] (ATCC35659, read-out: MIC capnophilic), 12.5 µg/mL (≈ 55.6 µM); in experiment [9] (ATCC49427, read-out: MIC + MK-4), above 60 µg/mL; in experiment [9] (ATCC49427, read-out: MIC capnophilic), 0.25 µg/mL (≈ 1.11 µM); in the experiment on MRSA (BAA 1762) (read-out: MIC + MK-4) it was above 60 µg/mL. The MIC is 0.75 µg/mL (≈ 3.34 µM) with MRSA (BAA 1762) (read-out: MIC MRSA); 0.75 µg/mL (≈ 3.34 µM) with MRSA (BAA 1762) (read-out: MIC aerobic); 0.37 µg/mL (≈ 1.65 µM) with MRSA (BAA 1762) (read-out: MIC anaerobic); 0.37 µg/mL (≈ 1.65 µM) in the experiment with MRSA (BAA 1762) (read-out: MIC capnophilic); above 60 µg/mL in experiment [10] (ATCC27853, read-out: MIC aerobic); above 60 µg/mL in experiment [10] (ATCC27853, read-out: MIC anaerobic). The MIC in experiment [10] (ATCC27853, read-out: MIC capnophilic) is above 60 µg/mL. Besides, the MIC aerobic result in [1] (K. pneumoniae, aerobic) was “no activity”; in the experiment with E. coli (ATCC 25922) (E. coli, aerobic), “no activity”; in [8] (P. mirabilis, aerobic), “no activity”; in [10] (P. aeruginosa, aerobic), “no activity”; with M. tuberculosis it was 0.64 µg/mL (≈ 2.85 µM). Besides, the MIC anaerobic is 62.5 µg/mL (≈ 278 µM) in experiment [1] (K. pneumoniae, anaerobic (GasPak)) and “no activity” in experiment [10] (P. aeruginosa, anaerobic (GasPak)). Further, the Colony morphology entry with MRSA [2] (MRSA on TSA with 4 µg/mL (½ agar MIC), 48 hr) is recorded as “SCV phenotype”. Moreover, in the experiment with MRSA [2] (MRSA on TSA with 16 µg/mL (2x agar-MIC) and 10 µM MK-4), the “Growth with MK-4 complementation” value is on record as “wild-type growth”. For the same compound, the “Agar MIC” value with MRSA [2] (MRSA on tryptic soy agar, no growth after 72 hr) was 8 µg/mL. Further, the “DHNA in treated cells” value in the experiment with MRSA cells [3] is recorded as “could not be detected”. Further, the “Reduction of bacterial load in thigh” value in the experiment on MRSA [4] was determined as 3.1 log CFU/gram tissue. In addition, the “Dose dependence of bacterial burden in thigh” value in the experiment with MRSA [4] (neutropenic mice, 25, 50 and 100 mg/kg SC) is “dose dependent reduction”. The “Survival rate (days post infection)” value in the experiment on MRSA [7] is listed as 4.6 days. Further, the MIC capnophilic was 0.25 µg/mL (≈ 1.11 µM) in experiment [9] (H. influenzae, capnophilic (candle jar)) and “no activity” in experiment [10] (P. aeruginosa, capnophilic (candle jar)). Besides, in the experiment with MRSA cells [11], the “Change in MK-8 with increasing concentration” value was “dose dependent decrease”.

For the compound `COC(=O)C=CC(=O)c1ccc(F)cc1` [Compound 2], the “MIC MSSA” value against MSSA (ATCC 25923) is listed as 8 µg/mL (≈ 38.4 µM). Further, the “MIC MRSA” value with MRSA (BAA 1762) came out at 12 µg/mL (≈ 57.6 µM).

With `COC(=O)C=CC(=O)c1ccc(Br)cc1` [Compound 3], the “MIC MSSA” value in the experiment with MSSA (ATCC 25923) is recorded as 8 µg/mL (≈ 29.7 µM). Also, in the experiment with MRSA (BAA 1762), the “MIC MRSA” value is reported as 16 µg/mL (≈ 59.5 µM).

As to `COC(=O)C=CC(=O)c1ccc([N+](=O)[O-])cc1` [Compound 4], in the experiment on MSSA (ATCC 25923), the “MIC MSSA” value was 4 µg/mL (≈ 17 µM). Moreover, in the experiment on MRSA (BAA 1762), the “MIC MRSA” value was 4 µg/mL (≈ 17 µM).

For `COC(=O)C=CC(=O)c1ccc(Cl)cc1Cl` [Compound 5], the “MIC MSSA” value in the experiment on MSSA (ATCC 25923) is reported as 1 µg/mL (≈ 3.86 µM). Further, the “MIC MRSA” value against MRSA (BAA 1762) turned out to be 2 µg/mL (≈ 7.72 µM).

As for `O=C(O)C=CC(=O)c1ccc(Cl)cc1` [Compound 6], the “MIC MSSA” value against MSSA (ATCC 25923) is given as above 60 µg/mL. Also, in the experiment on MRSA (BAA 1762), the “MIC MRSA” value is listed as above 60 µg/mL.

Consider `Cc1onc(-c2ccccc2)c1C(=O)N[C@@H]1C(=O)N2[C@@H]1SC(C)(C)[C@@H]2C(=O)O` [Oxacillin, reference compound], for which the MIC with MSSA (ATCC 25923) was 0.1 µg/mL (≈ 0.249 µM); in the experiment with MRSA (BAA 1762) (read-out: MIC MRSA), above 128 µg/mL. Also, the “Reduction of bacterial load in thigh” value in the experiment with MRSA [4] is “minimal effect”. Further, the “Survival rate (days post infection)” value in the experiment on MRSA [7] was in the range of 1.5 to 1.6 days.

As for `CN[C@H](CC(C)C)C(=O)N[C@H]1C(=O)N[C@@H](CC(N)=O)C(=O)N[C@H]2C(=O)N[C@H]3C(=O)N[C@H](C(=O)N[C@H](C(=O)O)c4cc(O)cc(O)c4-c4cc3ccc4O)[C@H](O)c3ccc(c(Cl)c3)Oc3cc2cc(c3O[C@@H]2O[C@H](CO)[C@@H](O)[C@H](O)[C@H]2O[C@H]2C[C@](C)(N)[C@H](O)[C@H](C)O2)Oc2ccc(cc2Cl)[C@H]1O` [Vancomycin, reference compound], the figures for the MIC in the experiment with MSSA (ATCC 25923) and with MRSA (BAA 1762) (read-out: MIC MRSA) were 2 µg/mL (≈ 1.38 µM) and 4 µg/mL (≈ 2.76 µM), respectively. The “Reduction of bacterial load in thigh” value with MRSA [4] is 4.2 log CFU/gram tissue. Also, the “Survival rate (days post infection)” value with MRSA [7] stood at 5.8 days.
